Source: PMC10487843, “Evaluation of Anticancer and Anti-Inflammatory Activities of Some Synthetic Rearranged Abietanes” (International Journal of Molecular Sciences, 2023)
In brackets after ≈: the same amount, converted by molar mass. Like-named read-outs stand apart in the source and are kept apart here.

Experiments:
HT29 cells [1] = experiment: Mitochondrial membrane potential by flow cytometry (Rh123/DHR); type: cell-based, human; conditions: HT29, 72 h
Source text: Apoptotic effects induced by anticancer agents can be mediated through two major pathways: intrinsic and extrinsic apoptotic pathways. The intrinsic pathway involves the disruption of the mitochondrial membrane and changes in the mitochondrial membrane potential (MMP), while the extrinsic pathway leads to apoptosis without initial MMP alterations. […] Further investigations are necessary to elucidate the detailed molecular mechanisms underlying their apoptotic effect.
We analyzed the electrochemical gradient across the mitochondrial membrane via analytical flow cytometry, using dihydrorhodamine (DHR). A total of 5 × 10^4 HT29 cells were plated in 24-well plates for this assay. […] Next, the medium was replaced by adding fresh solution with DHR to a final concentration of 5 μg/mL. The cells were incubated at 37 °C for 1 h, washed, and resuspended in PBS with 5 μg/mL of PI. The fluorescence intensity was measured using a FACScan flow cytometer (fluorescence-activated cell sorter). The experiments were performed two times, each with three replications per assay.

[2] = system: human hepatocarcinoma (HepG2); experiment: MTT cell viability assay, HepG2; type: cell-based; conditions: for IC80: 80% growth inhibition
Source text: (§1) In this study, we employed the MTT (3-(4,5-dimethyl thiazol-2-yl)-2,5-diphenyltetrazolium bromide) colorimetric assay to evaluate the cytotoxic activity of selected abietanes (compounds 5, 7, 13, 17, and 19) against three tumor cell lines: human colon adenocarcinoma (HT29), human hepatocarcinoma (HepG2), and murine melanoma (B16–F10). The MTT assay relied on the conversion of MTT to formazan by viable cells, with the formazan concentration proportional to the number of viable cells. The concentrations required for 50 and 80% growth inhibition (IC50 and IC80) were determined for each compound.
(§2) The human colorectal adenocarcinoma cell line HT29 (ECACC no. 9172201; ATCC no. HTB-38), the human hepatocarcinoma cell line HepG2 (ECACC no. 85011430), the mouse melanoma cells B16–F10 (ATCC no. CRL-6475), and the murine monocyte/macrophage like RAW 264.7 cell line (ATCC no, TIB-71) were obtained from the cell bank of the University of Granada, Spain. The tumor cell lines were cultured in DMEM (Dulbecco’s modified Eagle’s medium) supplemented with 2 mM glutamine, 10% heat-inactivated FCS (fetal calf serum), and 50 μg/mL of gentamicin (for all cancer cell lines). The RAW 264.7 cell line was cultured in RPMI1640 medium, supplemented with 2 mM glutamine, 10% heat-inactivated FCS, and 50 μg/mL of gentamicin. All cell lines were incubated at 37 °C, in an atmosphere of 5% CO2 and 95% humidity. The culture media were changed every 48 h, and the confluent cultures were separated with a trypsin solution (0.25% EDTA). In all experiments, monolayer cells were grown to 80–90% confluence in sterile cell culture flasks.
(§3) The effects of the compounds on the cell viability were established using the MTT method (Sigma, St. Louis, MO, USA). The cytotoxicity of the compounds was assessed by measuring the absorbance of MTT dye staining of metabolically competent cells. The cells were cultivated in 96-well plates at 6.0 × 10^3 cells/mL for the HT29 and RAW 264.7 cell lines, at 5.0 × 10^3 cells/mL for B16–F10 cells, and 15.0 × 10^3 cells/mL for the HepG2 cell line, with a final volume of 200 μL per well being incubated with the different products (0–100 μg/mL). After 72 h, 100 μL of MTT solution (0.5 mg/mL) in 50% of PBS and 50% of the medium was added to each well. Following incubation for 1.5 h, formazan was resuspended in 100 μL of DMSO, and each concentration was tested in triplicate. The cell viability relative to the untreated control cells was determined by measuring the absorbance at 570 nm using an ELISA plate reader (Tecan Sunrise MR20–301, TECAN, Grödig, Austria).

HT29 cells [3] = experiment: Hoechst-stained fluorescence microscopy (nuclear morphology); type: cell-based, human; conditions: HT29, 72 h
Source text: To assess the apoptosis induction capacity of compounds 5 and 13 on HT29 cells, we performed Hoechst […] nuclear staining, a well-established method for visualizing the morphological changes associated with apoptosis. Two principal morphological characteristics can be observed in the apoptosis process, chromatin condensation and nuclei fragmentation. Hoechst is a dye capable of penetrating cells and binding to double-stranded DNA, emitting blue light that can be visualized by using fluorescence microscopy.
The morphological changes were analyzed using Hoechst-stained fluorescence microscopy. For the analysis, 15 × 10^4 HT29 cells were plated on a coverslip within a 24-well plate. […] The cells were washed twice with PBS, treated with cold MeOH for 3 min, washed again with PBS, and then incubated in 500 μL of Hoechst solution (50 ng/mL) in PBS for 15 min in the dark. Finally, the samples were visualized through fluorescent microscopy (DMRB, Leica Microsystems, Wetzlar, Germany) under a DAPI filter.

[4] = system: murine melanoma (B16–F10); experiment: MTT cell viability assay, B16-F10; type: cell-based; conditions: Mus musculus, 72 h; for IC80: 80% growth inhibition
Source text: as §1, §2, §3

[5] = Homo sapiens, HepG2, 72 h, read-out: IC50

Compound | decrease in positive Rh123-stained cells with regard to untreated control (HT29 cells [1]; IC50 concentration) | decrease in positive Rh123-stained cells with regard to untreated control (HT29 cells [1]; IC80 concentration) [%] | IC50 ([2]; 72 h, listed as Pygmaeocin B (5)) [µg/mL] | IC80 ([2]; Homo sapiens, 72 h) [µg/mL] | IC50 [2, 5] [µg/mL] | nuclear morphology, Hoechst staining (HT29 cells [3]; IC50 concentration) | nuclear morphology, Hoechst staining (HT29 cells [3]; IC80 concentration) | IC50 [4] [µg/mL] | IC80 [4] [µg/mL]
CC(C)C1=CC2=C(C(=O)C1=O)C1=CC(=O)CC(C)(C)[C@@]1(C)C=C2 [Compound 5, Pygmaeocin B] | 54% | 61 | 8.99 ± 1.12 (≈ 29 µM) | 11.4 ± 1.08 (≈ 36.8 µM) | 8.98 (≈ 28.9 µM) | loss of normal nuclear architecture and chromatin condensation | formation of pyknotic or contracted nuclei followed by fragmentation into apoptotic bodies | 13.6 ± 0.14 (≈ 43.9 µM) | 14.04 ± 0.08 (≈ 45.2 µM)
CC(C)C1=CC2=C(C(=O)C1=O)[C@@]1(C)CCCC(C)(C)[C@@H]1CC2 [Compound 13] | around 40% | 57 | – | 7.67 ± 0.8 (≈ 25.5 µM) | 5.58 ± 0.93 (≈ 18.6 µM) | loss of normal nuclear architecture and chromatin condensation | formation of pyknotic or contracted nuclei followed by fragmentation into apoptotic bodies | 4.14 ± 0.25 (≈ 13.8 µM) | 5.41 ± 0.25 (≈ 18 µM)
